Data taken from PMC8602401 (Scientific Reports, 2021).
*1 amine or outer side, *2 acyl side, *3 side chain or, on linkers, in order; H or OH if unused. Where a SMILES comes first, the peptide text is derived from it. Side-chain parts run from the residue outwards. [ ]: non-standard residue; d: D form. The star is where a group is joined. γGlu = O=C(O)[C@H](CCC(=O)[*:2])N[*:1]; αMeF = C[C@](N)(Cc1ccccc1)C(=O)O; αMeK = C[C@](N)(CCCCN)C(=O)O; Lauroyl = CCCCCCCCCCCC(=O)*; αMeS = C[C@](N)(CO)C(=O)O; AEEA = NCCOCCOCC(=O)O; Aib = CC(C)(N)C(=O)O

Key:
[1] = system: diet-induced obese (DIO) mouse model; assay: Body weight, blood glucose and plasma insulin in diet-induced obese mouse model; format: in vivo; settings: DIO mice
Description: Male 20-week-old C57Bl/6 J mice were single-housed for approximately 14 weeks with ad libitum access to water and 60% high-fat diet (D12492, Research Diets). Mice were randomized into groups of 12 mice per group on baseline body weight, 6 h fasting glucose and 6 h fasting insulin. Over 21 days, mice received daily subcutaneous injections of 10 nmol/kg of test peptides or placebo (50 mM Tris–HCl, 150 mM mannitol, 0.02% polysorbate 80; pH 8.0). Body weight was measured daily and fasting glucose and insulin levels were measured on day 14 following a 6-h fast. Blood was collected via tail-snip and glucose was measured with an Ascensia Breeze 2 glucometer (Bayer, Mishawaka, IN, USA). Insulin was measured in plasma using a Meso Scale rat/insulin kit (Meso Scale Discovery, Rockville, MD, USA).

[2] = system: db/db mice; assay: Dose-response study in diabetic db/db mouse model; format: in vivo; settings: once-daily subcutaneous for 28 days, n = 9 per group
Description: Male 7-week-old db/db mice (Charles River, Bristol, UK) were group-housed with ad libitum access to standard chow and water. Mice were randomized to groups of nine mice per group on baseline body weight, HbA1C and 4-h fasting glucose (assessed in tail bleed samples using a Cobas c-111 analyzer [Roche Diagnostics, Indianapolis, IN, USA] and Nova StatStrip Xpress glucometer [DSI, St. Paul, MN, USA]). Insulin was measured in plasma from tail bleeds using a Meso Scale kit. Over 28 days, mice received daily subcutaneous doses of test peptides or placebo (50 mM Tris–HCl, 150 mM mannitol, 0.02% polysorbate 80; pH 8.0).

[3] = Bioavailability after intraduodenal administration with permeation enhancers in rats; format: in vivo, rat
Description: Male Sprague Dawley rats (Charles River, Shrewsbury, MA, USA) weighing 250–275 g were housed with ad libitum access to standard chow and water. Test peptides were administered via either an intravenous or a duodenal catheter (4 rats per group) after overnight fasting, and food was returned following 4 h blood collection. Blood was collected via a jugular vein catheter at − 5, 15 and 30 min and 1, 2, 4, 8 and 24 h after intravenous dosing, or for intraduodenal groups at 15 min predose and 0.5, 1, 2, 4, 8, 24 and 48 h postdose. Blood was collected in K2EDTA tubes and kept on wet ice prior to 10 min centrifugation (3000 × g) at 5 °C ± 3 °C. Plasma samples were stored at − 70 °C until analysis.
Fifty or seventy μL aliquots of K2EDTA plasma samples were precipitated with 75% acetonitrile (Sigma-Aldrich) in water (J.T. Baker, Phillipsburg, NJ, USA) (v/v) and centrifuged at 2000 × g. The supernatant was dried under nitrogen at 60 °C, then cooled. Samples were reconstituted in 20% acetonitrile in water (v/v). […] Gradient separation was performed with water and 0.2% formic acid (Thermo Fisher Scientific, Waltham, MA, USA) as mobile phase A, and acetonitrile with 0.2% formic acid as mobile phase B. The method was qualified for the quantification range of 1–1000 ng/mL with accuracy and precision of ± 20%, except for at the lower limit of quantification when the accuracy and precision were ± 25%. Plasma concentrations were subject to noncompartmental analysis consistent with the route of administration using Phoenix WinNonlin (version 7.0, Certara, Princeton, NJ, USA).

[4] = 10 nmol/kg daily subcutaneous, day 14, n = 12 per group

- fold higher mean bioavailability than semaglutide ([3]; intraduodenal with permeation enhancers): 13 fold
- mean bioavailability (%F) ([3]; single intraduodenal administration with permeation enhancers (NaCDC and PG), n = 4 per group): 1.01%
SMILES: CCCCCCCCCCCC(=O)N[C@@H](CCC(=O)NCCOCCOCC(=O)NCCOCCOCC(=O)NCCCC[C@H](NC(=O)[C@H](C)NC(=O)[C@@H](NC(=O)[C@](C)(Cc1ccccc1)NC(=O)[C@H](CCC(=O)O)NC(=O)[C@](C)(CCCCN)NC(=O)[C@H](C)NC(=O)[C@H](C)NC(=O)[C@H](CCC(=O)O)NC(=O)CNC(=O)[C@H](CCC(=O)O)NC(=O)[C@H](CC(C)C)NC(=O)[C@H](CCCCNC(=O)COCCOCCNC(=O)COCCOCCNC(=O)CC[C@H](NC(=O)CCCCCCCCCCC)C(=O)O)NC(=O)[C@H](CO)NC(=O)[C@](C)(CO)NC(=O)[C@@H](NC(=O)[C@H](CC(=O)O)NC(=O)[C@H](CO)NC(=O)[C@@H](NC(=O)[C@](C)(Cc1ccccc1)NC(=O)[C@H](CO)NC(=O)CNC(=O)[C@H](CCC(=O)O)NC(=O)C(C)(C)NC(=O)[C@@H](N)Cc1c[nH]cn1)[C@@H](C)O)C(C)C)[C@@H](C)CC)C(=O)N[C@H](C(=O)N[C@H](C(=O)N[C@@H](CCC(=O)O)C(=O)NCC(=O)NCC(N)=O)C(C)C)C(C)C)C(=O)O [MEDI7219] (H-H[Aib]EGS[αMeF]TSDV[αMeS]SK([AEEA-AEEA-γGlu-Lauroyl])LEGEAA[αMeK]E[αMeF]IAK([AEEA-AEEA-γGlu-Lauroyl])VVEGG-NH2)
- Body weight change (%) ([1]; 10 nmol/kg daily subcutaneous over 21 days, n = 12 per group, Fig. 3b): −17.0%
- body weight reduction after 21 days ([1]; 10 nmol/kg daily subcutaneous, 21 days, n = 12 per group): 17.0%
- 6-h fasting blood glucose – day 14 [1, 4]: 133.0 mg/dL
- 6-h fasting plasma insulin – day 14 [1, 4]: 0.74 ng/mL
- HbA1C levels ([2]; P < 0.001 versus placebo for doses 1–30 nmol/kg): dose-dependently reduced HbA1C levels
- blood glucose levels over 28 days ([2]; significantly lower than placebo at 3–30 nmol/kg (P < 0.001)): dose-dependently reduced glucose levels
